Where two headings read alike, the source gives them in different places. Starred links: 1 amine or outer side, 2 acyl side, 3 side chain; linkers in the order of their positions; H or OH if unused. Positions of bridges follow the written chain, without caps; N, C: chain ends. Non-standard residues stand in square brackets, D forms with d. Residues, ends and D or L forms follow the SMILES beside them. Groups on a side chain read outwards from the residue. *: point of attachment. Trp(1-Me) = Cn1cc(C[C@H](N)C(=O)O)c2ccccc21; Abu(4-yl) = O=C([C@H](CC[*:3])N[*:1])[*:2]; C18 diacid = O=C(O)CCCCCCCCCCCCCCCCC(=O)*; γGlu = O=C(O)[C@H](CCC(=O)[*:2])N[*:1]; AEEA = NCCOCCOCC(=O)O; Sar = CNCC(=O)O
Assays:
[1] = tested on: classical complement pathway; assay: In vitro haemolysis assay (inhibition of classical complement pathway); format: cell-based, human; settings: Table 3; human serum, sensitized sheep red blood cells; read-out: IC50[nM], in vitro analysis of inhibition of hemolysis
Method in brief: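 Serially diluted compound (9 points) was preincubated 15 min at room temperature with diluted human serum, titrated per batch to give 70-90% maximal haemolysis, in Tris/casein buffer pH 7.4 with Mg2+/Ca2+. Antibody-sensitized sheep erythrocytes were then added for 30 min at 37° C, and the reaction was stopped with EDTA. Haemolysis was read at A405, with IC50 from 4PL fit.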

[2] = molecular target: T1, Human C3 (Homo sapiens, UniProt P01024); assay: Affinity measurement by surface plasmon resonance (SPR) with immobilized C3; format: binding; settings: Table 7; immobilized C3, 25° C., pH 7.4
T1 construct: purchased Complement tech A1 13c (so in the source)

[3] = in vivo; parameters: species or system Cynomolgus monkeys (Macaca fascicularis); settings: male, cynomolgus monkey, sc, 1840 nmol/kg, t½
Description: Healthy male Cynomolgus monkeys (Macaca fascicularis) received single subcutaneous administrations of each test substance. Compounds were formulated in 20 mM phosphate adjusted with NaOH to pH 7.5 and mannitol for isotonicity and dosed at 1840 nmol/kg. Blood was collected from a femoral vein from each animal at the following times: Pre-dose, 1, 2, 4, 8, 24, 48, 72, 96 and 120 h (10 sampling times). Blood was collected into serum separation tubes and allowed to clot at room temperature. The tubes were centrifuged and resulting serum was aliquoted and snap-frozen over dry-ice and stored at nominally −80° C. until analysis. All NHP studies were performed in accordance with animal welfare laws and regulations, including approval of the study by a local ethical review process.
In order to assess pharmacokinetic half-life (t %/), serum samples isolated from non-human primates at specific time points after dosing were analysed for total drug compound after sample preparation by solid phase extraction (SPE) and liquid chromatography mass spectrometry (LC-MS/MS) using analogue internal standard. Single measurement of serum concentrations were used for calculation of the pharmacokinetic parameters using the non-compartmental approach in Phoenix WinNonlin 6.3. Plasma terminal elimination half-life (ty) was determined as In(2)/λz where λz is the magnitude of the slope of the log linear regression of the log concentration versus time profile during the terminal phase.

[4] = Solubility test at 10 mg/mL (visual inspection and light scattering); format: physicochemical
[5] = format: physicochemical; settings: 50 mg/mL peptide; for Covalent oligomer content after 14 days 40° C. (%), F1 / Purity after 14 days 40° C. (%), F1: F1: 20 mM phosphate pH 5.5; for Covalent oligomer content after 14 days 40° C. (%), F1 / Covalent oligomer content after 14 days 40° C. (%), F2: denaturing SEC; for Purity after 14 days 40° C. (%), F1 / Purity after 14 days 40° C. (%), F2 / Purity after 14 days 40° C. (%), F3: normalized purity (HPLC)
Description: Chemical stability of compstatin analogues with cystathionine or disulfide bridge. Stability was assessed in three formulations at 50 mg/mL peptide, F1:20 mM phosphate pH 5.5, F2:20 mM phosphate pH 6.5 and F3:20 mM phosphate pH 7.5. The formulations were prepared by direct dissolution of peptide from lyophilized portions in the respective formulations. pH was adjusted to target with 1 M NaOH and 1 M HCl. Chemical stability was assessed under accelerated conditions (14 days, 40° C.) and evaluated as change in purity by reverse phase HPLC, and change in covalent oligomer content by denaturing SEC. The formulations were placed at 40° C. with analysis points at T=0, 7 and 14 days. On each time point a small volume was extracted and diluted to 2 mg/mL and tested by reverse phase HPLC and denaturing SEC. Purity was assessed by reverse phase HPLC using an Ultimate 3000 system for binary gradient application equipped with a Kinetix C18 column (cat. no. 00F-4462-Y0, 150 mm×3 mm, 2.6 μm) run at 0.5 ml/min with a gradient of buffer A (0.3% TFA, aq.) and buffer B (0.3% TFA, 90% MeCN, aq.) gradient from 40% B to 70% B over 20 min. Detection was done using a diode array detector set to 220 nm. Covalent oligomer formation was assessed by denaturing SEC (size exclusion chromatography) using an Ultimate 3000 system equipped with a TSKgel SuperSW 2000 column (cat. no. 818674, 300 mm×3 mm, 4 μm) run at 0.5 ml/min with isocratic flow of buffer A (0.1% TFA, 45% MeCN, aq.), 10 min. Detection was done using a diode array detector set to 215 nm. Compounds 126 and 156 were carefully weighed out and dissolved in formulations F1, F2 and F3 to a target concentration of 50 mg/mL. Once visually dissolved, concentration was confirmed by absorbance at 280 nm, and samples were placed in stability at 40° C. Samples for analysis were extracted on T=0, 7 and 14 days from a 40° C. climate chamber. The extracted volume was dissolved 1:25 (final concentration: 2 mg/mL) in 20 mM phosphate pH 5.5, 6.5 or 7.5 and measured by reverse phase HPLC and denaturing SEC by injection of 0.4 μL (column load […]). The resulting chromatograms were integrated to determine chemical purity by reverse phase HPLC and covalent oligomer content by denaturing SEC.

## CC[C@H](C)[C@@H]1NC(=O)[C@@H](NC(=O)[C@H](Cc2ccc(O)cc2)NC(=O)[C@H](C)NC(=O)[C@H](CO)NC(C)=O)CSSC[C@@H](C(=O)N(C)CC(=O)N[C@@H](CCC(=O)O)C(=O)N[C@@H](CCCCNC(=O)CC[C@H](NC(=O)CNC(=O)CC[C@H](NC(=O)CCCCCCCCCCCCCCCCC(=O)O)C(=O)O)C(=O)O)C(N)=O)NC(=O)[C@H](CCCNC(=N)N)NC(=O)[C@H](Cc2c[nH]cn2)NC(=O)[C@H](CCC(=O)O)NC(=O)CNC(=O)[C@H](Cc2c[nH]c3ccccc23)NC(=O)[C@H](CC(=O)O)NC(=O)[C@H](CCC(N)=O)NC(=O)[C@H](Cc2cn(C)c3ccccc23)NC1=O [Compound 106] (Ac-SAYCI[Trp(1-Me)]QDWGEHRC[Sar]EK([γGlu-Gly-γGlu-C18 diacid])-NH2; disulfide 4-14)
[1]
  IC50: < 250 nM
[2]
  Kd: 5.4 nM
[3]
  half-life: 93.9 h

## CC[C@H](C)[C@@H]1NC(=O)[C@@H](NC(=O)[C@H](Cc2ccc(O)cc2)NC(=O)[C@H](C)NC(=O)[C@H](CO)NC(=O)CNC(=O)[C@H](CCC(=O)O)NC(C)=O)CSSC[C@@H](C(=O)N(C)CC(=O)N[C@@H](CCC(=O)O)C(=O)N[C@@H](CCCCN)C(=O)N[C@@H](CCC(=O)N[C@@H](CCCCNC(=O)COCCOCCNC(=O)COCCOCCNC(=O)CC[C@H](NC(=O)CCCCCCCCCCCCCCCCC(=O)O)C(=O)O)C(N)=O)C(=O)O)NC(=O)[C@H](CCCNC(=N)N)NC(=O)[C@H](Cc2c[nH]cn2)NC(=O)[C@H](CCC(=O)O)NC(=O)CNC(=O)[C@H](Cc2c[nH]c3ccccc23)NC(=O)[C@H](CC(=O)O)NC(=O)[C@H](CCC(N)=O)NC(=O)[C@H](Cc2cn(C)c3ccccc23)NC1=O [Compound 111] (Ac-EGSAYCI[Trp(1-Me)]QDWGEHRC[Sar]EK[γGlu]K([AEEA-AEEA-γGlu-C18 diacid])-NH2; disulfide 6-16)
[1]
  IC50: < 100 nM
[4]; 10 mg/mL compound in 100 mM acetate pH 4
  Solubility, Condition 1 Acetate pH 4: − (denotes lack of solubility at the given condition, as UV absorbance at 340 nm exceeds 0.1 AU and/or it is visibly turbid or contains particles.)
[4]; 10 mg/mL compound in 100 mM acetate pH 5
  Solubility, Condition 2 Acetate pH 5: − (denotes lack of solubility at the given condition, as UV absorbance at 340 nm exceeds 0.1 AU and/or it is visibly turbid or contains particles.)
[4]; 10 mg/mL compound in 100 mM phosphate pH 6
  Solubility, Condition 3 Phosphate pH 6: + (denotes solubility at the given condition, as determined by UV absorbance being less than 0.1 AU at 340 nm and the sample being clear when manually inspected.)
[4]; 10 mg/mL compound in 100 mM phosphate pH 7
  Solubility, Condition 4 Phosphate pH 7: + (denotes solubility at the given condition, as determined by UV absorbance being less than 0.1 AU at 340 nm and the sample being clear when manually inspected.)
[4]; 10 mg/mL compound in 100 mM phosphate pH 7.5
  Solubility, Condition 5 Phosphate pH 7.5: + (denotes solubility at the given condition, as determined by UV absorbance being less than 0.1 AU at 340 nm and the sample being clear when manually inspected.)
[3]
  half-life: 157 h
[5]
  Covalent oligomer content after 14 days 40° C. (%), F1: 30%
  Purity after 14 days 40° C. (%), F1: 80%
[5]; F2: 20 mM phosphate pH 6.5
  Covalent oligomer content after 14 days 40° C. (%), F2: 77%
  Purity after 14 days 40° C. (%), F2: 24%
[5]; F3: 20 mM phosphate pH 7.5
  Covalent oligomer content after 14 days 40° C. (%), F2: 61%
  Purity after 14 days 40° C. (%), F3: 33%

## CC[C@H](C)[C@@H]1NC(=O)[C@@H](NC(=O)[C@H](Cc2ccccc2)NC(=O)[C@H](CCC(=O)O)NC(=O)[C@H](CO)NC(C)=O)CSCC[C@@H](C(=O)N(C)CC(=O)N[C@@H](CCC(=O)O)C(=O)NCCOCCOCC(=O)NCCOCCOCC(=O)N[C@@H](CCCCNC(=O)CC[C@H](NC(=O)CNC(=O)CC[C@H](NC(=O)CCCCCCCCCCCCCCCCC(=O)O)C(=O)O)C(=O)O)C(N)=O)NC(=O)[C@H](CCCNC(=N)N)NC(=O)[C@H](Cc2c[nH]cn2)NC(=O)[C@H](CCC(=O)O)NC(=O)CN(C)C(=O)[C@H](Cc2c[nH]c3ccccc23)NC(=O)[C@H](CC(=O)O)NC(=O)[C@H](CCC(N)=O)NC(=O)[C@H](Cc2cn(C)c3ccccc23)NC1=O [Compound 147, Ac-SEFA(1)I[1-Me-Trp]QDW[Sar]EHRhC(1)[Sar]E[Peg3][Peg3]-K([17-carboxy-heptadecanoyl][γGlu]G[γGlu])-NH2] (Ac-SEFCI[Trp(1-Me)]QDW[Sar]EHR[Abu(4-yl)][Sar]E[AEEA][AEEA]K([γGlu-Gly-γGlu-C18 diacid])-NH2; thioether 4-14)
[1]
  IC50: < 100 nM
[3]
  half-life: 108 h
[5]
  Covalent oligomer content after 14 days 40° C. (%), F1: 0.6%
  Purity after 14 days 40° C. (%), F1: 98%
[5]; F2: 20 mM phosphate pH 6.5
  Covalent oligomer content after 14 days 40° C. (%), F2: 0.1%
  Purity after 14 days 40° C. (%), F2: 99%
[5]; F3: 20 mM phosphate pH 7.5
  Covalent oligomer content after 14 days 40° C. (%), F2: 0.2%
  Purity after 14 days 40° C. (%), F3: 99%

## CC[C@H](C)[C@@H]1NC(=O)[C@@H](NC(=O)[C@H](Cc2ccccc2)NC(=O)[C@H](CCC(=O)O)NC(=O)[C@H](CO)NC(C)=O)CSCC[C@@H](C(=O)N(C)CC(=O)N[C@@H](CCC(=O)O)C(=O)NCC(=O)N[C@@H](CCC(=O)O)C(=O)NCCOCCOCC(=O)N[C@@H](CCC(=O)O)C(=O)N[C@@H](CO)C(=O)N[C@@H](CCCCNC(=O)CC[C@H](NC(=O)CNC(=O)CC[C@H](NC(=O)CCCCCCCCCCCCCCCCC(=O)O)C(=O)O)C(=O)O)C(N)=O)NC(=O)[C@H](CCCNC(=N)N)NC(=O)[C@H](Cc2c[nH]cn2)NC(=O)[C@H](CCC(=O)O)NC(=O)CN(C)C(=O)[C@H](Cc2c[nH]c3ccccc23)NC(=O)[C@H](CC(=O)O)NC(=O)[C@H](CCC(N)=O)NC(=O)[C@H](Cc2cn(C)c3ccccc23)NC1=O [Compound 150, Ac-SEFA(1)I[1-Me-Trp]QDW[Sar]EHRhC(1)[Sar]EGE[Peg3]ES-K([17-carboxy-heptadecanoyl][γGlu]G[γGlu])-NH2] (Ac-SEFCI[Trp(1-Me)]QDW[Sar]EHR[Abu(4-yl)][Sar]EGE[AEEA]ESK([γGlu-Gly-γGlu-C18 diacid])-NH2; thioether 4-14)
[1]
  IC50: < 100 nM
[3]
  half-life: 120 h
[5]
  Covalent oligomer content after 14 days 40° C. (%), F1: 0.7%
  Purity after 14 days 40° C. (%), F1: 98%
[5]; F2: 20 mM phosphate pH 6.5
  Covalent oligomer content after 14 days 40° C. (%), F2: 0.1%
  Purity after 14 days 40° C. (%), F2: 100%
[5]; F3: 20 mM phosphate pH 7.5
  Covalent oligomer content after 14 days 40° C. (%), F2: 0.1%
  Purity after 14 days 40° C. (%), F3: 100%
